Test results reported in PubChem BioAssay (NCI).
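Dose response: 5 concentrations. Exposure: 48 h. Format: 96-well plates. Endpoint: linear interpolation; highest concentration if not reached. At the GI50, growth is halved. Definition used: TGI = concentration required for complete inhibition of growth.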

What was measured:
Assay in all cases: growth of human tumour cells (NCI), 48 h
[1] = tested on: SW-620 colon
[2] = tested on: HT29 colon
[3] = tested on: K-562 leukemia
[4] = tested on: SNB-19 CNS
[5] = tested on: SF-539 CNS
[6] = tested on: HOP-92 NSCLC
[7] = tested on: UACC-257 melanoma
[8] = tested on: DU-145 prostate
[9] = tested on: MALME-3M melanoma
[10] = tested on: TK-10 renal
[11] = tested on: OVCAR-3 ovarian
[12] = tested on: SN12C renal
[13] = tested on: MDA-MB-468 breast
[14] = tested on: SF-295 CNS
[15] = tested on: IGROV1 ovarian
[16] = tested on: MDA-MB-435
[17] = tested on: SK-MEL-5 melanoma
[18] = tested on: M14 melanoma
[19] = tested on: OVCAR-4 ovarian
[20] = tested on: A498 renal
[21] = tested on: 786-0 renal
[22] = tested on: HL-60(TB) leukemia
[23] = tested on: SK-OV-3 ovarian
[24] = tested on: EKVX NSCLC
[25] = tested on: NCI-H226 lung
[26] = tested on: HOP-62 NSCLC
[27] = tested on: MCF7 breast
[28] = tested on: OVCAR-5 ovarian
[29] = tested on: T-47D breast
[30] = tested on: LOX IMVI melanoma
[31] = tested on: MOLT-4 leukemia
[32] = tested on: U251 CNS
[33] = tested on: NCI-H23 lung
[34] = tested on: ACHN renal
[35] = tested on: NCI/ADR-RES ovarian
[36] = tested on: CCRF-CEM leukemia
[37] = tested on: HCC-2998 colon
[38] = tested on: SR leukemia
[39] = tested on: NCI-H522 lung
[40] = tested on: COLO 205 colon
[41] = tested on: RPMI-8226 leukemia
[42] = tested on: OVCAR-8 ovarian
[43] = tested on: A549 NSCLC
[44] = tested on: RXF 393 renal
[45] = tested on: SF-268 CNS
[46] = tested on: SK-MEL-28 melanoma
[47] = tested on: PC-3 prostate
[48] = tested on: NCI-H460 lung
[49] = tested on: HCT-116 colon
[50] = tested on: KM12 colon
[51] = tested on: CAKI-1 renal
[52] = tested on: UACC-62 melanoma
[53] = tested on: HS 578T breast
[54] = tested on: BT-549 breast
[55] = tested on: HCT-15 colon
[56] = tested on: SK-MEL-2 melanoma
[57] = tested on: SNB-75 CNS
[58] = tested on: MDA-MB-231 breast
[59] = tested on: UO-31 renal

Question: What does the source list for `Cc1[nH]nc2ccc3nc(-c4cn[nH]c4C(F)(F)F)c4c(c3c12)CCCC4`?
Answer: GI50 [1]: 2.48 µM; TGI [1]: 11.3 µM; GI50 [2]: 3.9 µM; TGI [2]: 12.7 µM; GI50 [3]: 3.5 µM; TGI [3]: 19.9 µM; GI50 [4]: 5.14 µM; TGI [4]: 17.9 µM; GI50 [5]: 2.03 µM; TGI [5]: 6.54 µM; GI50 [6]: 2.86 µM; TGI [6]: 8.51 µM; GI50 [7]: 8.47 µM; TGI [7]: 22 µM; GI50 [8]: 3.99 µM; TGI [8]: 18.5 µM; GI50 [9]: 4.04 µM; TGI [9]: 13.6 µM; GI50 [10]: 2.29 µM; TGI [10]: 11.7 µM; GI50 [11]: 4.15 µM; TGI [11]: 14.6 µM; GI50 [12]: 3.31 µM; TGI [12]: 13.3 µM; GI50 [13]: 2.46 µM; TGI [13]: 8.78 µM; GI50 [14]: 3.34 µM; TGI [14]: 14 µM; GI50 [15]: 2.61 µM; TGI [15]: 7.43 µM; GI50 [16]: 3.01 µM; TGI [16]: 11.2 µM; GI50 [17]: 2.94 µM; TGI [17]: 9.26 µM; GI50 [18]: 2.77 µM; TGI [18]: 10.9 µM; GI50 [19]: 8.96 µM; TGI [19]: 21.2 µM; GI50 [20]: 2.32 µM; TGI [20]: 6.77 µM; GI50 [21]: 2.95 µM; TGI [21]: 12.5 µM; GI50 [22]: 2.72 µM; TGI [22]: 6.92 µM; GI50 [23]: 1.78 µM; TGI [23]: 5.31 µM; GI50 [24]: 2.84 µM; TGI [24]: 9.62 µM; GI50 [25]: 5.15 µM; TGI [25]: 43.7 µM; GI50 [26]: 3.53 µM; TGI [26]: 12.5 µM; GI50 [27]: 4.03 µM; TGI [27]: 16.8 µM; GI50 [28]: 3.15 µM; TGI [28]: 13.7 µM; GI50 [29]: 2.4 µM; TGI [29]: 12.1 µM; GI50 [30]: 3.55 µM; TGI [30]: 13.1 µM; GI50 [31]: 2.16 µM; TGI [31]: 5.89 µM; GI50 [32]: 4.41 µM; TGI [32]: 17.6 µM; GI50 [33]: 2.95 µM; TGI [33]: 11 µM; GI50 [34]: 2.26 µM; TGI [34]: 11.6 µM; GI50 [35]: 11.7 µM; TGI [35]: 30.1 µM; GI50 [36]: 3.49 µM; TGI [36]: 19.1 µM; GI50 [37]: 3.52 µM; TGI [37]: 12.6 µM; GI50 [38]: 1.56 µM; TGI [38]: 4.13 µM; GI50 [39]: 1.44 µM; TGI [39]: 5.06 µM; GI50 [40]: 3.24 µM; TGI [40]: 10.9 µM; GI50 [41]: 2.49 µM; TGI [41]: 30.3 µM; GI50 [42]: 4.44 µM; TGI [42]: 18.7 µM; GI50 [43]: 3.54 µM; TGI [43]: 13 µM; GI50 [44]: 1.37 µM; TGI [44]: 4.39 µM; GI50 [45]: 2.99 µM; TGI [45]: 13.5 µM; GI50 [46]: 3.79 µM; TGI [46]: 14.2 µM; GI50 [47]: 3.94 µM; TGI [47]: 17.1 µM; GI50 [48]: 3 µM; TGI [48]: 13.1 µM; GI50 [49]: 2.58 µM; TGI [49]: 10.3 µM; GI50 [50]: 2.82 µM; TGI [50]: 13.3 µM; GI50 [51]: 3.3 µM; TGI [51]: 11.8 µM; GI50 [52]: 2.09 µM; TGI [52]: 6.64 µM; GI50 [53]: 2.14 µM; TGI [53]: 5.19 µM; GI50 [54]: 2.1 µM; TGI [54]: 5.19 µM; GI50 [55]: 2.75 µM; TGI [55]: 9.34 µM

Question: What does the source list for `COc1cccc(/C=N/NC(=O)c2ccc3nc(-c4ccc(Cl)cc4)[nH]c3c2)c1O`?
Answer: GI50 [1]: 1.32 µM; TGI [1]: 3.52 µM; GI50 [2]: 4.17 µM; TGI [2]: 19.3 µM; GI50 [3]: 0.332 µM; GI50 [4]: 1.31 µM; TGI [4]: 2.59 µM; GI50 [5]: 0.428 µM; TGI [5]: 1.02 µM; GI50 [6]: 0.67 µM; TGI [6]: 2.4 µM; GI50 [7]: 1.19 µM; TGI [7]: 3.53 µM; GI50 [8]: 1.34 µM; TGI [8]: 3.28 µM; GI50 [9]: 1.36 µM; TGI [9]: 2.89 µM; GI50 [10]: 4.07 µM; TGI [10]: 15.9 µM; GI50 [11]: 0.353 µM; TGI [11]: 1.05 µM; GI50 [12]: 1.08 µM; TGI [12]: 2.59 µM; GI50 [13]: 0.611 µM; TGI [13]: 1.45 µM; GI50 [14]: 2.2 µM; TGI [14]: 5.46 µM; GI50 [15]: 1.25 µM; TGI [15]: 3.14 µM; GI50 [16]: 1.01 µM; TGI [16]: 2.83 µM; GI50 [17]: 0.772 µM; TGI [17]: 2.09 µM; GI50 [18]: 1.01 µM; TGI [18]: 4.28 µM; GI50 [19]: 0.728 µM; TGI [19]: 3.18 µM; GI50 [20]: 5 µM; TGI [20]: 11.9 µM; GI50 [21]: 1.06 µM; TGI [21]: 2.52 µM; GI50 [56]: 0.378 µM; TGI [56]: 1.49 µM; GI50 [22]: 1.07 µM; TGI [22]: 4.63 µM; GI50 [23]: 1.03 µM; TGI [23]: 2.79 µM; GI50 [24]: 2.12 µM; TGI [24]: 9.8 µM; GI50 [25]: 1.65 µM; TGI [25]: 4 µM; GI50 [26]: 0.57 µM; TGI [26]: 1.85 µM; GI50 [27]: 0.66 µM; TGI [27]: 3.38 µM; GI50 [28]: 1.85 µM; TGI [28]: 5.08 µM; GI50 [29]: 0.389 µM; TGI [29]: 2.01 µM; GI50 [30]: 1.18 µM; TGI [30]: 2.53 µM; GI50 [31]: 0.421 µM; TGI [31]: 2.46 µM; GI50 [32]: 1.5 µM; TGI [32]: 3.08 µM; GI50 [33]: 0.525 µM; TGI [33]: 1.54 µM; GI50 [34]: 1.32 µM; TGI [34]: 6.25 µM; GI50 [35]: > 100 µM; TGI [35]: > 100 µM; GI50 [36]: 0.425 µM; TGI [36]: 3.77 µM; GI50 [37]: 0.8 µM; TGI [37]: 2.2 µM; GI50 [38]: 0.369 µM; TGI [38]: 3.75 µM; GI50 [57]: 0.231 µM; TGI [57]: 1.38 µM; GI50 [39]: 1.17 µM; TGI [39]: 2.81 µM; GI50 [58]: 0.988 µM; TGI [58]: 3.15 µM; GI50 [40]: 1.58 µM; TGI [40]: 3.56 µM; GI50 [41]: 2.22 µM; TGI [41]: 5.54 µM; GI50 [59]: 1.01 µM; TGI [59]: > 48 µM; GI50 [42]: 1.58 µM; TGI [42]: 4.39 µM; GI50 [43]: 3.68 µM; TGI [43]: 14.8 µM; GI50 [44]: 0.972 µM; TGI [44]: 2.46 µM; GI50 [45]: 0.484 µM; TGI [45]: 1.52 µM; GI50 [46]: 1 µM; TGI [46]: 2.93 µM; GI50 [47]: 1.35 µM; TGI [47]: 4.67 µM; GI50 [48]: 1.34 µM; TGI [48]: 2.77 µM; GI50 [49]: 1.19 µM; TGI [49]: 2.57 µM; GI50 [50]: 0.715 µM; TGI [50]: 1.88 µM; GI50 [51]: 1.01 µM; TGI [51]: 3.51 µM; GI50 [52]: 0.607 µM; TGI [52]: 1.77 µM; GI50 [53]: 0.705 µM; TGI [53]: 2.9 µM; GI50 [54]: 0.673 µM; TGI [54]: 1.79 µM; GI50 [55]: 1.31 µM; TGI [55]: > 40 µM
